The source of these data is patent US20240043427A1 (Gilead Sciences, Inc., priority 2020, published 2024).

Molecules are shown by their SMILES.

Test [1] addresses T1, CD73 (Homo sapiens (Human), UniProt P21589). The format is biochemical. The settings on record: 1 mM NaH2PO4 in enzyme buffer, CD73 0.3 nM, AMP 15 uM.
The target of test [2] is T1, CD73. Briefly: MDA-MB-231 Cell Based CD73 Activity Assay (DMEM). The following applies: MDA-MB-231-GFP cells, DMEM medium with 10% human plasma, 200 uM AMP. The method, then:
MDA-MB-231 Cell Based CD73 Activity Assay (DMEM) MDA-MB-231-GFP cells were seeded in 384-well plates (Greiner 781946) at a density of 3000 cells per well in 50 μL of DMEM medium with 10% HP (human plasma). Cells were plated into assay plate with compounds pre-spotted, for an overnight compound treatment. 50 uL of 400 uM AMP (final concentration will be 200 uM) was added using Bio-tek dispenser. Plates were incubated for 100 mins. […] The samples were analyzed using Rapid fire.

T1 sequence (P21589 27-574): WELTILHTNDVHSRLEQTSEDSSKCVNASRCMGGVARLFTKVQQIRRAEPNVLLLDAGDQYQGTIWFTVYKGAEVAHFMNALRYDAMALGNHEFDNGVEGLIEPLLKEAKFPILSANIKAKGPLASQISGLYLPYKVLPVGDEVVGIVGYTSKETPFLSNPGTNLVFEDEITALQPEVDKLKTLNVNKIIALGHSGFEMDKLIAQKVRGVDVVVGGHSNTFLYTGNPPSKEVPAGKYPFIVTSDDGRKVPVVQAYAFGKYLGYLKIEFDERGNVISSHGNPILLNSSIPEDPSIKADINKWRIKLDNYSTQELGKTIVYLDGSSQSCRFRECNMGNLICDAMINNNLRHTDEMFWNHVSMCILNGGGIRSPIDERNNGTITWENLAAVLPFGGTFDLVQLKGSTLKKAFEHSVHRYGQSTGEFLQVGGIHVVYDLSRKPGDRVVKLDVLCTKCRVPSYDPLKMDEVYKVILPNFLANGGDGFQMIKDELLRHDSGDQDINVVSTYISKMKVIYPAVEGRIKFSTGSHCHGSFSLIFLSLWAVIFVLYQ

By IC50 is commonly meant the midpoint of a concentration-inhibition curve. Broadly, the EC50 is the concentration at which the effect is half-maximal. A low value points to higher potency in that assay. On CD73 [1], `O=c1[nH]cc(-c2cc([C@H]3C[C@@H]3c3ccc(Cl)cn3)c3ncc(F)n3n2)c(=O)[nH]1` [Example 584, 5-(8-((1S,2S)-2-(5-chloropyridin-2-yl)cyclopropyl)-3-fluoroimidazo[1,2-b]pyridazin-6-yl)pyrimidine-2,4(1H,3H)-dione] gave an IC50 of 0.91 nM. The molecule also yielded an EC50 at CD73 [2] of 2.98 nM. In turn, `O=c1[nH]cc(-c2cc(N3CC[C@H](OC(F)(F)F)C3)c3nccn3n2)c(=O)[nH]1` [Example 196, 5-[8-[(3S)-3-(trifluoromethoxy)pyrrolidin-1-yl]imidazo[1,2-b]pyridazin-6-yl]-1H-pyrimidine-2,4-dione] had an IC50 at CD73 [1] of 98.6 nM. At CD73 [2], this molecule registered an EC50 of 243 nM.

Molecule `O=c1[nH]cc(-c2cc(N3CC4(CCC4)C3)c3nccn3n2)c(=O)[nH]1` [Example 398, 5-(8-(2-azaspiro[3.3]heptan-2-yl)imidazo[1,2-b]pyridazin-6-yl)pyrimidine-2,4(1H,3H)-dione] displayed an IC50 against CD73 [1] of 17.1 nM. The molecule also gave an EC50 at CD73 [2] of 29.5 nM. Regarding `CC(C)NC(=O)O[C@H]1CN(c2cc(-c3c[nH]c(=O)[nH]c3=O)nc3ccnn23)CC1(F)F` [Example 713, (S)-1-(5-(2,4-dioxo-1,2,3,4-tetrahydropyrimidin-5-yl)pyrazolo[1,5-a]pyrimidin-7-yl)-4,4-difluoropyrrolidin-3-yl isopropylcarbamate], the EC50 on CD73 [2] amounted to 0.39 nM.

At CD73 [1], `N#Cc1c(F)cc([C@H]2C[C@@H]2c2cc(-c3c[nH]c(=O)[nH]c3=O)nn3ccnc23)cc1F` [Example 557, 4-((1S,2S)-2-(6-(2,4-dioxo-1,2,3,4-tetrahydropyrimidin-5-yl)imidazo[1,2-b]pyridazin-8-yl)cyclopropyl)-2,6-difluorobenzonitrile] showed an IC50 of 1.71 nM. Besides, the EC50 on CD73 [2] is 9.73 nM.

In turn, `O=c1[nH]cc(-c2cc(N3C[C@H](Oc4ccc(OC(F)(F)C(F)(F)F)cn4)C(F)(F)C3)c3nccn3n2)c(=O)[nH]1` [Example 337, (S)-5-(8-(3,3-difluoro-4-((5-(perfluoroethoxy)pyridin-2-yl)oxy)pyrrolidin-1-yl)imidazo[1,2-b]pyridazin-6-yl)pyrimidine-2,4(1H,3H)-dione] registered an IC50 on CD73 [1] of 3.29 nM. On CD73 [2], it took 15.9 nM to reach a half-maximal effect (EC50). Take `N#Cc1cc(F)c([C@H]2C[C@@H]2c2cc(-c3c[nH]c(=O)[nH]c3=O)nn3ncnc23)c(F)c1` [Example 428, 4-((1S,2S)-2-(6-(2,4-dioxo-1,2,3,4-tetrahydropyrimidin-5-yl)-[1,2,4]triazolo[1,5-b]pyridazin-8-yl)cyclopropyl)-3,5-difluorobenzonitrile]: the IC50 at CD73 [1] amounted to 1.38 nM. In addition, the EC50 on CD73 [2] was found to be 14.7 nM. As to `O=c1[nH]cc(-c2cc(N3CCC(F)(C(F)(F)F)C3)c3nccn3n2)c(=O)[nH]1` (stereo not drawn) [Example 169, 5-(8-(3-fluoro-3-(trifluoromethyl)pyrrolidin-1-yl)imidazo[1,2-b]pyridazin-6-yl)pyrimidine-2,4(1H,3H)-dione], half-maximal inhibition against CD73 [1] (IC50) required 73.9 nM. For the same molecule, the EC50 on CD73 [2] was 189 nM. Take `COC1CN(c2cc(-c3c[nH]c(=O)[nH]c3=O)nn3ccnc23)CC12CC2` (stereo not drawn) [Example 349, 5-(8-(7-methoxy-5-azaspiro[2.4]heptan-5-yl)imidazo[1,2-b]pyridazin-6-yl)pyrimidine-2,4(1H,3H)-dione]: it took 148 nM to reach half-maximal inhibition against CD73 [1] (IC50). Further, the EC50 on CD73 [2] was 124 nM. The corresponding values for `O=c1[nH]cc(-c2cc(N3CCC4CCC43)c3nccn3n2)c(=O)[nH]1` (stereo not drawn) [Example 257, 5-(8-(2-azabicyclo[3.2.0]heptan-2-yl)imidazo[1,2-b]pyridazin-6-yl)pyrimidine-2,4(1H,3H)-dione] are 51.7 nM and 103 nM. The corresponding values for `O=C(NC1CN(c2cc(-c3c[nH]c(=O)[nH]c3=O)nn3ccnc23)CC1(F)F)c1ccc(C(F)(F)F)cn1` (stereo not drawn) [Example 211, N-[1-[6-(2,4-dioxo-1H-pyrimidin-5-yl)imidazo[1,2-b]pyridazin-8-yl]-4,4-difluoro-pyrrolidin-3-yl]-5-(trifluoromethyl)pyridine-2-carboxamide] are 2.33 nM and 10.8 nM. As for `O=C1N(CC(F)(F)F)c2cc([C@H]3C[C@@H]3c3cc(-c4c[nH]c(=O)[nH]c4=O)nc4ccnn34)ccc2C12CC2` [Example 715, 5-(7-((1S,2S)-2-(2′-oxo-1′-(2,2,2-trifluoroethyl)spiro[cyclopropane-1,3′-indolin]-6′-yl)cyclopropyl)pyrazolo[1,5-a]pyrimidin-5-yl)pyrimidine-2,4(1H,3H)-dione], half-maximal inhibition on CD73 [1] (IC50) was put at 1.42 nM. Moreover, on CD73 [2], it took 0.32 nM to reach a half-maximal effect (EC50). Take `C[C@H]1CN(c2cc(-c3c[nH]c(=O)[nH]c3=O)nn3c(F)cnc23)CC1(F)F` [Example 518, (S)-5-(8-(3,3-difluoro-4-methylpyrrolidin-1-yl)-3-fluoroimidazo[1,2-b]pyridazin-6-yl)pyrimidine-2,4(1H,3H)-dione]: on CD73 [1], the IC50 was determined as 5.5 nM. The molecule also came in with an EC50 on CD73 [2] of 19.6 nM. Turning to `CC(=O)NC1CCN(c2cc(-c3c[nH]c(=O)[nH]c3=O)nc3ccnn23)C1` (stereo not drawn) [Example 245, N-(1-(5-(2,4-dioxo-1,2,3,4-tetrahydropyrimidin-5-yl)pyrazolo[1,5-a]pyrimidin-7-yl)pyrrolidin-3-yl)acetamide], the IC50 against CD73 [1] was 170 nM. The molecule also yielded an EC50 at CD73 [2] of 747 nM. `O=c1[nH]cc(-c2cc([C@H]3C[C@@H]3c3ccc4nccc(OCC(F)(F)F)c4c3)c3nccn3n2)c(=O)[nH]1` [Example 709, 5-(8-((1S,2S)-2-(4-(2,2,2-trifluoroethoxy)quinolin-6-yl)cyclopropyl)imidazo[1,2-b]pyridazin-6-yl)pyrimidine-2,4(1H,3H)-dione] returned an IC50 on CD73 [1] of 1.24 nM. Besides, the EC50 at CD73 [2] worked out at 0.4 nM. The like results for `O=c1[nH]cc(-c2cc(N3CCC(F)(F)C3)c3ncc(F)n3n2)c(=O)[nH]1` [Example 176, 5-(8-(3,3-difluoropyrrolidin-1-yl)-3-fluoroimidazo[1,2-b]pyridazin-6-yl)pyrimidine-2,4(1H,3H)-dione] were, in that order, 11 nM and 59.5 nM. The like results for `O=c1[nH]cc(-c2cc(N3CC(F)C4(CC4)C3)c3nccn3n2)c(=O)[nH]1` (stereo not drawn) [Example 171, 5-(8-(7-fluoro-5-azaspiro[2.4]heptan-5-yl)imidazo[1,2-b]pyridazin-6-yl)pyrimidine-2,4(1H,3H)-dione] were, in that order, 3.17 nM and 14.1 nM. `CC1(C)CN(c2cc(-c3c[nH]c(=O)[nH]c3=O)nn3ccnc23)C(=O)O1` [Example 514, 5-(8-(5,5-dimethyl-2-oxooxazolidin-3-yl)imidazo[1,2-b]pyridazin-6-yl)pyrimidine-2,4(1H,3H)-dione] came in with an IC50 against CD73 [1] of 212 nM. This molecule also showed an EC50 at CD73 [2] of 269 nM. The corresponding values for `O=c1[nH]cc(-c2cc(N3CC4C(C3)C4(F)F)c3nccn3n2)c(=O)[nH]1` (stereo not drawn) [Example 224, 5-(8-(6,6-difluoro-3-azabicyclo[3.1.0]hexan-3-yl)imidazo[1,2-b]pyridazin-6-yl)pyrimidine-2,4(1H,3H)-dione] are 11.9 nM and 32.6 nM. In turn, `CC(C)(C)COc1cc(-c2c[nH]c(=O)[nH]c2=O)nn2ccnc12` [Example 679, 5-(8-(neopentyloxy)imidazo[1,2-b]pyridazin-6-yl)pyrimidine-2,4(1H,3H)-dione] registered an EC50 on CD73 [2] of 124 nM. Consider `O=c1[nH]cc(-c2cc([C@H]3C[C@@H]3c3ccc4cnn(CC(F)(F)F)c4c3F)c3ncc(F)n3n2)c(=O)[nH]1` [Example 630, 5-(3-fluoro-8-((1S,2S)-2-(7-fluoro-1-(2,2,2-trifluoroethyl)-1H-indazol-6-yl)cyclopropyl)imidazo[1,2-b]pyridazin-6-yl)pyrimidine-2,4(1H,3H)-dione], for which, at CD73 [2], the EC50 amounted to 0.08 nM.

The molecule `O=c1[nH]cc(-c2cc(N3CCC4(C3)CC4(F)F)c3nccn3n2)c(=O)[nH]1` (stereo not drawn) [Example 192] had a 50% effective concentration (EC50) on CD73 [2] of 20.9 nM. This EC50 lies about 260-fold higher than the previous one. Molecule `O=c1[nH]cc(-c2cc(N3CC4CC(F)(C4)C3)c3nccn3n2)c(=O)[nH]1` [Example 579, 5-(8-(1-fluoro-3-azabicyclo[3.1.1]heptan-3-yl)imidazo[1,2-b]pyridazin-6-yl)pyrimidine-2,4(1H,3H)-dione] yielded an EC50 on CD73 [2] of 111 nM. This EC50 is about 5.3-fold higher than that of the molecule before. Consider `O=c1[nH]cc(-c2cc([C@H]3C[C@@H]3c3ccnc(C(F)(F)F)c3)c3nccn3n2)c(=O)[nH]1` (racemic) [Example 160, 5-(8-((1S,2S)-2-(2-(trifluoromethyl)pyridin-4-yl)cyclopropyl)imidazo[1,2-b]pyridazin-6-yl)pyrimidine-2,4(1H,3H)-dione], for which, at CD73 [1], the IC50 was found to be 15.4 nM. On the same count and under the same terms, the result for `CC1CN(C(=O)c2cccc([C@H]3C[C@@H]3c3cc(-c4c[nH]c(=O)[nH]c4=O)nn4ccnc34)c2)C1` (racemic) [Example 295, 5-(8-((1S,2S)-2-(3-(3-methylazetidine-1-carbonyl)phenyl)cyclopropyl)imidazo[1,2-b]pyridazin-6-yl)pyrimidine-2,4(1H,3H)-dione] reads 1.92 nM. Still for that read-out and setting: the result for `O=C(c1cccc([C@H]2C[C@@H]2c2cc(-c3c[nH]c(=O)[nH]c3=O)nn3ccnc23)c1)N1CCC(F)(F)C1` (racemic) [Example 306, 5-(8-((1S,2S)-2-(3-(3,3-difluoropyrrolidine-1-carbonyl)phenyl)cyclopropyl)imidazo[1,2-b]pyridazin-6-yl)pyrimidine-2,4(1H,3H)-dione] reads 1.67 nM.

For the molecule `O=C1N(CC(F)(F)F)c2cc([C@H]3C[C@@H]3c3cc(-c4c[nH]c(=O)[nH]c4=O)nn4c(Cl)c(Cl)nc34)ccc2C12CC2` [Example 741, 5-(2,3-dichloro-8-((1S,2S)-2-(2′-oxo-1′-(2,2,2-trifluoroethyl)spiro[cyclopropane-1,3′-indolin]-6′-yl)cyclopropyl)imidazo[1,2-b]pyridazin-6-yl)pyrimidine-2,4(1H,3H)-dione], at CD73 [1], the IC50 is 0.49 nM.
